Experimental data as given in patent publication US20240287093A1, “HIGH ACTIVITY STING PROTEIN AGONIST” (ADLAI NORTYE BIOPHARMA CO., LTD., priority 2018, published 2024).

Key:
Format in all cases: cell-based
STING variants (WT) [1] = target: T1, STING variants (WT) (Homo sapiens, UniProt Q86WV6); assay: SEAP reporter assay in HEK-Blue ISG KO-STING cells transfected with STING WT variant (Method 2, 1 ng vector); conditions: compound concentration 2.5 (mM as printed); 24 h; SEAP signal ratio to 0.5% DMSO
T1 construct: host or cells: HEK-Blue ISG KO-STING cells (Invivogen, hkb-kostg)
From the text: (§1) Example II: STING Variants (WT & HAQ) Activation by Compounds in HEK-Blue™ ISG KO-STING Cells (Method 2)
(§2) Activation of STING can be determined using a SEAP reporter assay in HEK-Blue™ ISG KO-STING cells (Invivogen, cat #hkb-kostg) transfected with plasmids expressing STING variants (WT & HAQ) (referred to WO2017/175147A1). STING variants (WT & HAQ) vector were constructed based on STING-232H vector (Origene, RC208418). GFP vector (VT2069) was bought from Youbio. The detailed protocol as follows: HEK-Blue™ ISG KO-STING cells were harvest and seeding into 96 well plate and the final cell number was 0.8×10^5 cells/well. Transfections were prepared using Lipofectamine 2000 (Invitrogen, Cat #11668-027) following the manufacturer's instructions (Lipo2000:DNA=1:10), 20 ul of transfection suspension containing 1 ng (WT variant) or 0.0625 ng (HAQ variant) STING vector was added to cell culture plate and incubated at 37° C., 5% CO2 for 24 h. After 24 hours incubation, compounds were added at proper concentration, the final DMSO concentration was 0.5%. After 24h incubation, the supernatant was collected to detect SEAP signal using Great EscAPe SEAP chemiluminescence KIT (Clontech, cat #631738) and cells were collected to detect cell viability using CellTiter-Glo Luminescent Cell Viability Assay(Promega, cat #G7573) following the manufacturer's instructions. The data were described by the ratio of the stimulating signal of compounds to 0.5% DMSO.

STING = target: T2, STING (Homo sapiens, UniProt Q86WV6, G230A/H232R/R293Q/R71H); assay: IFNβ release from THP1 by STING activation (hIFNβ ELISA); conditions: THP1 cells, 24 h, IFN-β in supernatant; inactive = IFNβ not detected at the maximum concentration of compounds
T2 construct: THP1 was purchased from National Collection of Authenticated Cell Cultures (Cat #TCHu 57); host or cells: THP1
T2 sequence (Q86WV6 whole entry R71H/G230A/H232R/R293Q): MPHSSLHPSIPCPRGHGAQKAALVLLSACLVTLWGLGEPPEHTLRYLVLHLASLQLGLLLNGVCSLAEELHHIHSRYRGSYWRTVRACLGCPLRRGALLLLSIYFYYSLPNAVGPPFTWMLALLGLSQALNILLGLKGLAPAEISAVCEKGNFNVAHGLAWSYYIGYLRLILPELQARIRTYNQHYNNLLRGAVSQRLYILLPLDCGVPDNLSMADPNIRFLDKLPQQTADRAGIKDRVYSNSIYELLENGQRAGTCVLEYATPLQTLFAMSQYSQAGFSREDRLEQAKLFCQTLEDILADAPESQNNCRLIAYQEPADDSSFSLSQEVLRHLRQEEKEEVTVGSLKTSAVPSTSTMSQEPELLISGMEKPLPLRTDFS
Experimental: Example III: Compound Stimulate THP1 to Release IFNβ by STING Activation
In this assay, activation of STING by compounds was evaluated by detecting their ability to stimulate the secretion of IFN-β (interferon-beta) from THP1. THP1 was purchased from National Collection of Authenticated Cell Cultures (Cat #TCHu 57). The top dose of compounds was setted according to their solubility. First, Compounds were 3 times diluted with medium, 8-dose points in total. The final DMSO concentration was 0.2%. THP1 during the logarithmic phase was resuspended to 2×10^6 cells/ml in assay medium. The THP1-cell suspension was dispensed into a 96-well U bottom plate containing 50 ul of compound diluted in medium. After 24 h incubation at 37° C., 5% CO2, the supernatant was collected. The concentration of IFN-β in the supernatant was measured using a human IFNβ ELISA KIT (R&D, DY814-05). The data was fitted with GraphPad Prism or XLfit to calculate EC50 values.

STING variants (HAQ) [2] = target: T3, STING variants (HAQ) (Homo sapiens, UniProt Q86WV6, G230A/R293Q/R71H); assay: SEAP reporter assay in HEK-Blue ISG KO-STING cells transfected with STING HAQ variant (Method 2, 0.0625 ng vector); conditions: compound concentration 5 (mM as printed); 24 h; SEAP signal ratio to 0.5% DMSO
T3 construct: host or cells: HEK-Blue ISG KO-STING cells (Invivogen, hkb-kostg)
T3 sequence (Q86WV6 whole entry R71H/G230A/R293Q): as the sequence (Q86WV6 whole entry R71H/G230A/H232R/R293Q) above, with R232H counted along it
From the text: as §1, §2

STING variants (HAQ) [3] = target: T3, STING variants (HAQ); assay: SEAP reporter assay in HEK-Blue ISG KO-STING cells transfected with STING HAQ variant (Method 1); conditions: 24 h
From the text: (§3) Example I: STING Variants (WT & HAQ) Activation by Compounds in HEK-Blue™ ISG KO-STING Cells (Method 1)
as §2, with “well plate,” for “well plate and”, “ng” for “ng (WT variant) or 0.0625 ng (HAQ variant)”, “concentration, and” for “concentration,”, “After 24 h” for “After 24h”, “Viability Assay (Promega,” for “Viability Assay(Promega,”

STING variants (WT) [4] = target: T1, STING variants (WT); assay: SEAP reporter assay in HEK-Blue ISG KO-STING cells transfected with STING WT variant (Method 1); conditions: 24 h
From the text: as §3
as §2, with “well plate,” for “well plate and”, “ng” for “ng (WT variant) or 0.0625 ng (HAQ variant)”, “concentration, and” for “concentration,”, “After 24 h” for “After 24h”, “Viability Assay (Promega,” for “Viability Assay(Promega,”

[5] = compound concentration 125.3 μM

Fold change related to DMSO control, WT (STING variants (WT) [1]) [fold]	hIFNβ ELISA (EC50, μM) (STING)	Fold change related to DMSO control, HAQ (STING variants (HAQ) [2]) [fold]	EC50 (STING) [µM]	also measured	Compound
0.79	inactive	0.63	–	–	C=Cc1c(C)nn(CC)c1C(=O)Nc1nc2cc(C(N)=O)cc3c2n1[C@@H](CCCN)CO3 [Example 51, (S)-3-(3-Aminopropyl)-2-(1-ethyl-3-methyl-4-vinyl-1H-pyrazole-5-carboxamido)-3,4-dihydro-5-oxa-1,2a-diazaacenaphthylene-7-carboxamide]
1.90	–	8.67	> 16.7	–	CCn1nc(C)cc1C(=O)Nc1nc2cc(C(N)=O)cc3c2n1CC1(CC1)CO3 [Example 61, 1-(1-ethyl-3-methyl-1H-pyrazole-5-carboxamido)-7H,9H-6-oxa-2,9a-diazaspiro[benzo[cd]azulene-8,1′-cyclopropan]-1,2a,3,5-tetraene-4-carboxamide]
1.22	–	1.13	> 21.6	–	CCn1nc(C)cc1C(=O)Nc1nc2cc(C(N)=O)cc3c2n1CC1(COC1)CO3 [Example 59, 1-(1-Ethyl-3-methyl-1H-pyrazole-5-carboxamido)-7H,9H-6-oxa-2,9a-diazaspiro[benzo[cd]azulene-8,3′-oxetan]-1,2a,2a^1(5a),4-tetraene-4-carboxamide]
2.97	–	18.10	> 17.6	–	CCn1nc(C)cc1C(=O)Nc1nc2cc(C(N)=O)cc3c2n1C[C@H](C)CO3 [Example 71, (S)-1-(1-Ethyl-3-methyl-1H-pyrazole-5-carboxamido)-8-methyl-8,9-dihydro-7H-6-oxa-2,9a-diazabenzo[cd]azulene-4-carboxamide]
1.24	–	3.27	> 38.5	–	CCn1nc(C)c(F)c1C(=O)Nc1nc2cc(C(N)=O)cc3c2n1CC1(COC1)CO3 [Example 72, 1-(1-Ethyl-4-fluoro-3-methyl-1H-pyrazole-5-carboxamido)-7H,9H-6-oxa-2,9a-diazaspiro[benzo[cd]azulene-8,3′-oxetan]-1,2a,2a^1(5a),4-tetraene-4-carboxamide]
1.38	inactive	2.96	–	–	CCn1nc(C)c(Cl)c1C(=O)Nc1nc2cc(C(N)=O)cc3c2n1[C@@H](C(C)C)CO3 [Example 55, (S)-2-(4-chloro-1-ethyl-3-methyl-1H-pyrazole-5-carboxamido)-3-isopropyl-3,4-dihydro-5-oxa-1,2a-diazaacenaphthylene-7-carboxamide]
–	–	–	11.4	Fold change related to DMSO control, HAQ (STING variants (HAQ) [3]; compound concentration 25 μM): 63.91 fold; Fold change related to DMSO control, WT (STING variants (WT) [4]; compound concentration 25 μM): 2.00 fold	CC[C@H]1COc2cc(C(N)=O)cc3nc(NC(=O)c4cc(C)nn4CC)n1c23 [Example 26, (S)-3-Ethyl-2-(1-ethyl-3-methyl-1H-pyrazole-5-carboxamido)-3,4-dihydro-5-oxa-1,2a-diazaacenaphthylene-7-carboxamide]
–	inactive	–	–	Fold change related to DMSO control, HAQ (STING variants (HAQ) [3]; compound concentration 77.9 μM): 6.46 fold; Fold change related to DMSO control, WT (STING variants (WT) [4]; compound concentration 77.9 μM): 2.25 fold	CCn1nc(C)cc1C(=O)Nc1nc2cc(C(N)=O)cc3c2n1[C@H](CCCNC(=O)OCc1ccccc1)CO3 [Example 2, Benzyl (R)-(3-(7-carbamoyl-2-(1-ethyl-3-methyl-1H-pyrazole-5-carboxamido)-3,4-dihydro-5-oxa-1,2a-diazaacenaphthylen-3-yl)propyl)carbamate]
–	inactive	–	–	Fold change related to DMSO control, HAQ (STING variants (HAQ) [3]; compound concentration 25 μM): 22.11 fold; Fold change related to DMSO control, WT (STING variants (WT) [4]; compound concentration 25 μM): 2.71 fold	CCn1nc(C)cc1C(=O)Nc1nc2cc(C(N)=O)cc3c2n1[C@@H](CCCNC(=O)/C=C/c1ccccc1)CO3 [Example 31, (S)-3-(3-Cinnamamidopropyl)-2-(1-ethyl-3-methyl-1H-pyrazole-5-carboxamido)-3,4-dihydro-5-oxa-1,2a-diazaacenaphthylene-7-carboxamide]
–	inactive	–	–	Fold change related to DMSO control, HAQ (STING variants (HAQ) [3]; [5]): 20.80 fold; Fold change related to DMSO control, WT (STING variants (WT) [4]; [5]): 1.65 fold	CCn1nc(C)cc1C(=O)Nc1nc2cc(C(N)=O)cc3c2n1[C@@H](CCCCNC(=O)OCc1ccccn1)CO3 [Example 19, Pyridin-2-ylmethyl (S)-(4-(7-carbamoyl-2-(1-ethyl-3-methyl-1H-pyrazole-5-carboxamido)-3,4-dihydro-5-oxa-1,2a-diazaacenaphthylen-3-yl)butyl)carbamate]
–	inactive	–	–	Fold change related to DMSO control, HAQ (STING variants (HAQ) [3]; compound concentration 73.3 μM): 13.17 fold; Fold change related to DMSO control, WT (STING variants (WT) [4]; compound concentration 73.3 μM): 3.47 fold	CCn1nc(C)cc1C(=O)Nc1nc2cc(C(N)=O)cc3c2n1[C@@H](CCNC(=O)OCc1cccnc1)CO3 [Example 8, Pyridin-3-ylmethyl (S)-(2-(7-carbamoyl-2-(1-ethyl-3-methyl-1H-pyrazole-5-carboxamido)-3,4-dihydro-5-oxa-1,2a-diazaacenaphthylen-3-yl)ethyl)carbamate]
–	inactive	–	–	Fold change related to DMSO control, HAQ (STING variants (HAQ) [3]; compound concentration 5 μM): 23.88 fold; Fold change related to DMSO control, WT (STING variants (WT) [4]; compound concentration 2.5 μM): 2.02 fold	CCn1nc(C)cc1C(=O)Nc1nc2cc(C(N)=O)cc3c2n1[C@@H](CCCNC(=O)OCc1ccccc1)CN3C [Example 43, Benzyl (S)-(3-(8-carbamoyl-2-(1-ethyl-3-methyl-1H-pyrazole-5-carbozamido)-6-methyl-5,6-dihydro-4H-imidazo[1,5,4-de]quinoxalin-4-yl)propyl)carbamate]
–	–	–	> 16.7	Fold change related to DMSO control, HAQ (STING variants (HAQ) [3]; compound concentration 25 μM): 56.18 fold; Fold change related to DMSO control, WT (STING variants (WT) [4]; compound concentration 25 μM): 2.24 fold	CCn1nc(C)cc1C(=O)Nc1nc2cc(C(N)=O)cc3c2n1[C@@H](C(C)C)CO3 [Example 25, (S)-2-(1-Ethyl-3-methyl-1H-pyrazole-5-carboxamido)-3-isopropyl-3,4-dihydro-5-oxa-1,2a-diazaacenaphthylene-7-carboxamide]
